Source: patent publication US8337896B2, “Drug-containing nanoparticles” (Kyushu University, National University Corporation, priority 2007, dated 2012)
Where a name gives a salt, the structure may show the parent alone.

Columns and labels:
[1] = test system: mouse vascular injury model; test: Neointimal formation suppressive effect in mouse vascular injury model; type: in vivo; details: high dose systemic administration: single intraperitoneal, 28 days after wire injury
Experimental: Using the pioglitazone-containing nanoparticles obtained in Example 1, the neointimal formation suppressive effect in mouse vascular injury model was tested. […] The both ends of the blood vessel were ligated with a 6-0 silk thread to temporarily shut off the blood flow. The branch was incised, and a wire (diameter […], No. C—SF-15-15, COOK) was inserted by 5 mm in the iliac artery side to injure the blood vessel. After wire injury, the experimental animals were divided into a solvent control group and pioglitazone-containing nanoparticle group. The wire was removed, 100 μl, each of a solvent and a pioglitazone-containing PLGA nanoparticle solution was intraarterially administered from the branch over 5 min. The solvent control group was administered with the solvent (phosphate buffered saline) alone only once. The pioglitazone-containing nanoparticle group was administered with the pioglitazone-containing PLGA nanoparticles obtained in Example 1 (containing 0.5 mg/mouse as nanoparticles, corresponding to pioglitazone concentration of 0.015 mg/mouse (0.5 mg/kg body weight)) once. After administration, the branch part was ligated, the blood flow was resumed and the skin was sutured. Immediately after the wire injury, a high dose (10-fold amount of clinical dose) pioglitazone hydrochloride (0.15 mg/mouse (5 mg/kg body weight) as pioglitazone) single time intraperitoneal administration group was formed. At 28 days after vascular injury, the right femoral artery was washed and fixed with phosphate buffered saline and neutral buffered formalin via the heart, and isolated. A paraffin section was prepared and stained with Elastica van Gieson, proliferating cell nuclear antigen (PCNA) was immunohistochemically stained, and evaluated for the intima/media ratio, neointimal area, medial area and cell proliferation. For immunohistochemical staining, the proliferated cells were counted and the ratio of thereof to the total cell number was calculated.

[2] = test system: Rat aortic smooth muscle cells; test: Delivery and retention of nanoparticles in cultured rat smooth muscle cells; type: cell-based; details: medium containing FITC alone
Experimental: Using the FITC-containing nanoparticles prepared in Experimental Example 3 (1), deliver and retention tests in cultured rat […] smooth muscle cell were performed.
Rat aortic smooth muscle cells (obtained from TOYOBO) were plated on a slide glass chamber to a subconfluent cell density in DMEM medium (Sigma) containing 10% fetal bovine serum (day 0). On day 2, the medium was changed to a medium containing FITC or FITC-containing nanoparticles (0.5 mg/mL in nanoparticles concentration).
At 5 min and 24 hr after medium exchange, the cells were fixed with methanol, the nucleus was stained with Propidium iodide (Vector laboratories, Inc.), and subjected to fluorescence microscope observation. The total number of nuclei and fluorescence positive cells were counted for each field of view, and the ratio of fluorescence positive cells was calculated.

In the case of CCc1ccc(CCOc2ccc(CC3SC(=O)NC3=O)cc2)nc1 (stereo not shown) [Pioglitazone, pioglitazone hydrochloride], the Intima/media ratio ([1]; 0.15 mg/mouse (5 mg/kg) as pioglitazone) is reported as 2.3 ± 1.2, the “Medial area (μm^2)” value ([1]; 5 mg/kg as pioglitazone) is reported as 14904 ± 2107 μm^2 and the “Neointimal area (μm^2)” value ([1]; 5 mg/kg as pioglitazone) is reported as 23656 ± 8982 μm^2.
fluorescein isothiocyanate [FITC] was tested, and the “Ratio of fluorescence positive cells” value [2] was 0%.
